pKi: −log10 of the molar value.
Columns and labels:
Test in all cases: biochemical kinase assay at […] ATP
Conditions in all cases: read-out: NDI-031301
JAK2 = JAK2 (Homo sapiens, UniProt O60674)
TYK2 = TYK2 (Homo sapiens, UniProt P29597)
JAK1 = JAK1 (Homo sapiens, UniProt P23458)
JAK3 = target: T1, JAK3 (Homo sapiens, UniProt P52333)
T1 sequence (P52333 1-1124): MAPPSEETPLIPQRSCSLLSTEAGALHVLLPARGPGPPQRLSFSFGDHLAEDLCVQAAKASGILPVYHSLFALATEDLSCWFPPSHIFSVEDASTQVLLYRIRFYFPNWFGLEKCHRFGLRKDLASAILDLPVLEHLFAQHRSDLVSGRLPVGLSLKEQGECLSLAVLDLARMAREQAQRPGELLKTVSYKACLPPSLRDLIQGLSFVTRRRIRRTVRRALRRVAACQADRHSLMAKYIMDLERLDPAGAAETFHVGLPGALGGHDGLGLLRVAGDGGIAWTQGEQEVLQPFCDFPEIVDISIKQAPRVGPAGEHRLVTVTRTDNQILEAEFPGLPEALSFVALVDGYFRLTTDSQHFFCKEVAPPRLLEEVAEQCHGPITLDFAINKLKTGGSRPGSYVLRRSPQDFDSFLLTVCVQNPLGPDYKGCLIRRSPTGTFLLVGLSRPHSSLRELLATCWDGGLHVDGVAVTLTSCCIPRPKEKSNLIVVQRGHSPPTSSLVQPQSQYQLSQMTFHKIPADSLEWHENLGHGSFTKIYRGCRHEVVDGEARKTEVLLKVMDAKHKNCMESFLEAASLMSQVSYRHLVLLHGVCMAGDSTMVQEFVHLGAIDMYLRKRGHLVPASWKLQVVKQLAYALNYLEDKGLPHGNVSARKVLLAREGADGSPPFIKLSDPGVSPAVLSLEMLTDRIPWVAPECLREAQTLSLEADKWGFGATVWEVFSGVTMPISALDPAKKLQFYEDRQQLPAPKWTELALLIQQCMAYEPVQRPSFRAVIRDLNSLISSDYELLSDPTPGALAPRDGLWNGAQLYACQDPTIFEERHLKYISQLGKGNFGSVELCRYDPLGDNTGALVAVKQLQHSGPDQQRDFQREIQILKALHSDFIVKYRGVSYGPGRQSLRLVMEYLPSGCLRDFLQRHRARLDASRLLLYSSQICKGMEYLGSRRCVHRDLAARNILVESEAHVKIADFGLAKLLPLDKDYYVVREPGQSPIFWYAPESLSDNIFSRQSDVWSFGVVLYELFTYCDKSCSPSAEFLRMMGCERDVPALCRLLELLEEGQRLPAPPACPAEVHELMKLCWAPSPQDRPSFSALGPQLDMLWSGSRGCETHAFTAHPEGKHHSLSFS

Chain of JAK1 (P23458 whole entry): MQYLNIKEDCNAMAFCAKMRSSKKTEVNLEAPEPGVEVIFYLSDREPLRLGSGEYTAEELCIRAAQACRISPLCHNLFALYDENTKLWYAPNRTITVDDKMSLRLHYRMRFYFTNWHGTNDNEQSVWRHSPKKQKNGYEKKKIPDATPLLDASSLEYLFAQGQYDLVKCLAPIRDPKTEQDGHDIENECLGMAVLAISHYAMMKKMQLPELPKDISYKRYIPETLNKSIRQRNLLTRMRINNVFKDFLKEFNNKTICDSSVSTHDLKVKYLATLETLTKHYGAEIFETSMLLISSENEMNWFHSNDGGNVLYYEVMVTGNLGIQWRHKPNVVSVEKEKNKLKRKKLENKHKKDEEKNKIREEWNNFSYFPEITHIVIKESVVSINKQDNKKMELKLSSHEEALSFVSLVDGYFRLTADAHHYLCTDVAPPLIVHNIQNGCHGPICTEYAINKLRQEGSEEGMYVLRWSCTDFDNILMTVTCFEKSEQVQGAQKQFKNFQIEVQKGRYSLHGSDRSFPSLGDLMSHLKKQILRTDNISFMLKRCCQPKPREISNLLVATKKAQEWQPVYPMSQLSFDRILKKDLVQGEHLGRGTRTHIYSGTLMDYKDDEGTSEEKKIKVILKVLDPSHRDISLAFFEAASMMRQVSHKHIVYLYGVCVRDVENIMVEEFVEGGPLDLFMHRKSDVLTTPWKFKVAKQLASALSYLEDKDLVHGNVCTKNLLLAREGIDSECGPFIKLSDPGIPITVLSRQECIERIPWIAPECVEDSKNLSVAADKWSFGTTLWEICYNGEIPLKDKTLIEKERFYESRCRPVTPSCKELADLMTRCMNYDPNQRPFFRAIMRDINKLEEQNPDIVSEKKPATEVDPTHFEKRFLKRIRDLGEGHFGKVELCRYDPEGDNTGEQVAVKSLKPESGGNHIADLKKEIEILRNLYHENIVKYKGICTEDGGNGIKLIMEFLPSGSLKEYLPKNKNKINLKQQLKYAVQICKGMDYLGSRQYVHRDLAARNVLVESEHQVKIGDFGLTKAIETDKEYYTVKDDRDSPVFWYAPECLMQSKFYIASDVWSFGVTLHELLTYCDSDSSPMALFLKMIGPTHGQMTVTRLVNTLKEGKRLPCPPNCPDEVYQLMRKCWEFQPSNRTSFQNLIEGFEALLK
Chain of JAK2 (O60674 whole entry): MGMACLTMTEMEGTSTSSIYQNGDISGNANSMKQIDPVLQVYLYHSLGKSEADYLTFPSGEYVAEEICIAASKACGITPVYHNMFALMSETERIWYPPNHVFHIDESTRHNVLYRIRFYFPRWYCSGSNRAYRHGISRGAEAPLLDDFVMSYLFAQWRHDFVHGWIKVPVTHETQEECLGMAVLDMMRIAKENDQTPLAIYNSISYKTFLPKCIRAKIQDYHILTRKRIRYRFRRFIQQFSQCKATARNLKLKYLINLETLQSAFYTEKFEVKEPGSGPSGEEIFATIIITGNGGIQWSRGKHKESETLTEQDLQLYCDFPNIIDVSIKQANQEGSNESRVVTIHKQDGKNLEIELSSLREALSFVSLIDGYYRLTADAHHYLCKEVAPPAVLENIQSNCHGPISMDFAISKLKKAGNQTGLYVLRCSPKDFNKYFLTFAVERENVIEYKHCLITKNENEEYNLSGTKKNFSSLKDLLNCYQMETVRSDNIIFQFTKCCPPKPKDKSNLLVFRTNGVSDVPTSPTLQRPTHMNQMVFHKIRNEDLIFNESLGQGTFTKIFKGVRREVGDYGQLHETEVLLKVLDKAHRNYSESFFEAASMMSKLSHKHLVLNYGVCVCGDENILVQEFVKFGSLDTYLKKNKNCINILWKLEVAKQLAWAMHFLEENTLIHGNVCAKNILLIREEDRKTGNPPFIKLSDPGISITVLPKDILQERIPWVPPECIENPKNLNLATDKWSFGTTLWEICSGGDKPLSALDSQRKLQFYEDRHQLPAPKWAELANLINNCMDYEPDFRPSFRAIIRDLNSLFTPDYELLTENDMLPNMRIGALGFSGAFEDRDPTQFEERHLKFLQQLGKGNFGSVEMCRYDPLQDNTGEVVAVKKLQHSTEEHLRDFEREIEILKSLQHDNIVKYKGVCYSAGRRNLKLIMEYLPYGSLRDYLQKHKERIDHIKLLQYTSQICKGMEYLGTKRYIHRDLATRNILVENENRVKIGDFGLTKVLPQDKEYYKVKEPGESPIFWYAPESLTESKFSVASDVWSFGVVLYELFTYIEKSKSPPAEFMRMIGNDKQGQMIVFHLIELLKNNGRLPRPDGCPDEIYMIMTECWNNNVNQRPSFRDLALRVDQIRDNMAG
Chain of TYK2 (P29597 whole entry): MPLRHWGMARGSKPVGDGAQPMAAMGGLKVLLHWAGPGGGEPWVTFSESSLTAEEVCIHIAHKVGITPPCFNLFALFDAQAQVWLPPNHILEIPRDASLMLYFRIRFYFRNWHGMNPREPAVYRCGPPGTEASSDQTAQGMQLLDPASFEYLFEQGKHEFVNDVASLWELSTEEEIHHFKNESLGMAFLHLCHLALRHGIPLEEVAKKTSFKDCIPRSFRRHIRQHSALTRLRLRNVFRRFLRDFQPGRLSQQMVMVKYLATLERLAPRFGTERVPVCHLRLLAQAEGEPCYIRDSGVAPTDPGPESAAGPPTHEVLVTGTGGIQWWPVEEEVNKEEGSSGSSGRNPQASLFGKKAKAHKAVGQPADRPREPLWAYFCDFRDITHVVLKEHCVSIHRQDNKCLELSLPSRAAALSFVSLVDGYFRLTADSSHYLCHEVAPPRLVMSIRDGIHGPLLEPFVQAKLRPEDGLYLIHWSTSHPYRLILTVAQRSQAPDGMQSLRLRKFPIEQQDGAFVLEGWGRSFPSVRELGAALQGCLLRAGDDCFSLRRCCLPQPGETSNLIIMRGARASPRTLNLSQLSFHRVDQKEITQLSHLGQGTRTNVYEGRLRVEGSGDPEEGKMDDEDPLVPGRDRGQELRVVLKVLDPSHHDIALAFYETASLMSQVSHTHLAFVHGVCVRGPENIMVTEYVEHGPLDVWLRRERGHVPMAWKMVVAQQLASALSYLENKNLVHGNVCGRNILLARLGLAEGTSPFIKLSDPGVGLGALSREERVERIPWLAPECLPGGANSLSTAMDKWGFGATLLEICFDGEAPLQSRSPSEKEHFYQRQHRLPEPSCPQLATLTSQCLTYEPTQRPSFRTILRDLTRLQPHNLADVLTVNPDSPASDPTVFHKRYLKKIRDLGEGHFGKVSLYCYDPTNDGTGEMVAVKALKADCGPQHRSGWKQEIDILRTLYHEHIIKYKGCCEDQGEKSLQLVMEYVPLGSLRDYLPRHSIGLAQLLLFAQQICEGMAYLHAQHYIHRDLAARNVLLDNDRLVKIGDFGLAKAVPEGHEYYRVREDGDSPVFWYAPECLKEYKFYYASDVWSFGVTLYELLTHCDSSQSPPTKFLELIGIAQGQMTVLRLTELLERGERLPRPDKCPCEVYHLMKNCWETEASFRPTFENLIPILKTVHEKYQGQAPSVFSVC

NDI-031301
pKi (JAK2): 5.56
pKi (TYK2): 6.89
pKi (JAK1): 5.66
pKi (JAK3): 5.61

— PMC5384871 (British journal of haematology, 2017)
